Target: T1, human β3 adrenergic receptor (Homo sapiens, UniProt P13945)
T1 construct: expressed in transfected cells; host or cells: DXB-11 Chinese hamster ovary (CHO) cell line, stably transfected (phd expression vector)
Test: whole cell receptor coupled c-AMP assay, human β3 receptor in CHO cells (EC50, Emax relative to isoproterenol)
Format: cell-based
In short: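 Stably transfected DXB-11 CHO cells (20,000/well) were exposed to compound for 20 min at 37 °C in HBSS/HEPES buffer with 1 mM IBMX, pH 7.4. cAMP was measured by SPA. EC50 came from a four-parameter logistic fit, and Emax is the maximal response as a percentage of isoproterenol's.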

[1] = Emax ± standard error of the mean, average of at least 3 runs except where n = 1, compound tested in the isolated form listed
[2] = % intrinsic activity relative to isoproterenol maximal response, average of at least 3 runs, c-AMP in transfected CHO cells

T1 sequence (P13945 whole entry): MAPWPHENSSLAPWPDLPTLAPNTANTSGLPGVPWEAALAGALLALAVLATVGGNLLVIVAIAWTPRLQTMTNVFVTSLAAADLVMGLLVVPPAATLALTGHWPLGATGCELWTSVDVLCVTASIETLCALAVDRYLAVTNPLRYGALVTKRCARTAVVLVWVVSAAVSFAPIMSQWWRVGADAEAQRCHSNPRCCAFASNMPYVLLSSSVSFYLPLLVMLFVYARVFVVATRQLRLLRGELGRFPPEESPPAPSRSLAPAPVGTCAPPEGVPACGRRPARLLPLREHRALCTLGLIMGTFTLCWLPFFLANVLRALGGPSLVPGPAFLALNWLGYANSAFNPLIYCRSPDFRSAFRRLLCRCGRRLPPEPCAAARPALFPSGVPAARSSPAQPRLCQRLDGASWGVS

SMILES	Emax (%) ± SEM [1]	other results
CC(C)(Cc1ccc(Oc2ncccc2C(N)=O)cc1)NC[C@H](O)COc1ccccc1-n1ccnc1.Cl [Example 104]	36.0 ± 5.0%	
CC(C)(Cc1ccc(Oc2ncccc2C#N)cc1)NC[C@H](O)COc1ccccc1-c1ccn[nH]1 [Example 55]	37.5 n = 1%	
CC(=O)c1ccc(-c2ccccc2OC[C@@H](O)CNC(C)(C)Cc2ccc(Oc3ccc(S(C)(=O)=O)cc3)cc2)s1.Cl [Example 394]		Emax (%) ± SEM [2]: 76.9 ± 5.0%
CCOC(=O)c1cccnc1Oc1ccc(CC(C)(C)NC[C@H](O)COc2ccccc2-c2ccn(C)n2)cc1 [Example 106]	53.2 ± 2.4%	
COC(=O)c1ccc(Oc2ccc(CC(C)(C)NC[C@H](O)COc3ccccc3-c3ccn[nH]3)cc2)nc1 [Example 118]	29.5 n = 1%	
CC(C)(Cc1ccc(Oc2ncccc2C(N)=O)cc1)NC[C@H](O)COc1ccccc1-c1ccc(C(N)=O)s1 [Example 450]		Emax (% intrinsic activity relative to isoproterenol maximal response, SEM in brackets, c-AMP in transfected CHO cells): 67.4%
CC(C)(Cc1ccc(Oc2ccc(C#N)s2)cc1)NC[C@H](O)COc1ccccc1-c1nccs1.O=C(O)C(F)(F)F [Example 328]		Emax (%) ± SEM (Emax ± SEM, average of at least 3 runs except as otherwise indicated, tested as the isolated form listed): 57.4 ± 6.5%
CC(C)(Cc1ccc(Oc2ccc(C(N)=O)cn2)cc1)NC[C@H](O)COc1ccccc1-c1nnco1 [Example 30]	51.7 ± 2.7%	
CC(C)(Cc1ccc(Oc2ccc(S(C)(=O)=O)cc2)cc1)NC[C@H](O)COc1ccccc1-c1ccco1.Cl [Example 395]		Emax (%) ± SEM [2]: 46.6 ± 5.9%
CC(C)(Cc1ccc(Oc2ccc(S(C)(=O)=O)cc2)cc1)NC[C@H](O)COc1ccccc1-c1cccs1.O=C(O)C(F)(F)F [Example 129]	53.2 ± 4.8%	
CC(C)(Cc1ccc(Oc2ccc(C#N)cn2)cc1)NC[C@H](O)COc1ccccc1-c1ccncn1 [Example 10]	35.1 ± 0.9%	
COC(=O)c1ccc(Oc2ccc(CC(C)(C)NC[C@H](O)COc3ccccc3-c3ccnn3C)cc2)c(Cl)c1 [Example 137]	<10%	
CC(C)(Cc1ccc(Oc2ncccc2C(N)=O)cc1)NC[C@H](O)COc1ccccc1-c1ccno1.Cl [Example 73]	69.5 ± 0.1%	
CC(C)(Cc1ccc(Oc2ncccc2C(N)=O)cc1)NC[C@H](O)COc1ccccc1-c1cc2ccccc2s1.O=C(O)C(F)(F)F [Example 387]		Emax (%) ± SEM [2]: 78.7 ± 14.9%
Cn1nccc1-c1ccccc1OC[C@@H](O)CNC(C)(C)Cc1ccc(Oc2ncccc2C(N)=O)cc1 [Example 66]	26.6 n = 1%	
CC(C)(Cc1ccc(Oc2ccc(C(N)=O)cn2)cc1)NC[C@H](O)COc1ccccc1-c1ccnc(N)n1 [Example 33]	26.2 ± 4.3%	
CCOC(=O)c1cccnc1Oc1ccc(CC(C)(C)NC[C@H](O)COc2ccccc2-c2ccno2)cc1 [Example 110]	60.3 ± 3.9%	
COC(=O)c1ccc(Oc2ccc(CC(C)(C)NC[C@H](O)COc3ccccc3-c3ccn(C)n3)cc2)nc1 [Example 114]	56.6 n = 1%	

The next lines start with results.

Emax (%) ± SEM [1]	SMILES	other results
49.5 ± 1.5%	CC(C)(Cc1ccc(Oc2ccc(C(N)=O)cc2F)cc1)NC[C@H](O)COc1ccccc1-c1nccs1.O=C(O)C(F)(F)F [Example 191]	
83.0 ± 4.0%	CC(C)(Cc1ccc(Oc2cccnc2C(N)=O)cc1)NC[C@H](O)COc1ccccc1-c1ccns1.O=C(O)C(F)(F)F [Example 199]	
45.9 ± 3.9%	CC(C)(Cc1ccc(Oc2ccc(C(N)=O)cc2)cc1)NC[C@H](O)COc1ccccc1-c1ccon1.Cl [Example 299]	
49.8 ± 4.5%	CC(C)(Cc1ccc(Oc2ncccc2C#N)cc1)NC[C@H](O)COc1ccccc1-c1cscn1.Cl [Example 239]	
87.9 ± 4.5%	CC(C)(Cc1ccc(Oc2ncc(Cl)cc2Cl)cc1)NC[C@H](O)COc1ccccc1-c1cccs1.O=C(O)C(F)(F)F [Example 173]	
62.2 ± 7.4%	COC(=O)c1ccc(Oc2ccc(CC(C)(C)NC[C@H](O)COc3ccccc3-c3cccs3)cc2)c(Cl)c1 [Example 139]	
48.4 ± 5.6%	CC(C)(Cc1ccc(Oc2ccc(C#N)s2)cc1)NC[C@H](O)COc1ccccc1-c1cscn1.Cl [Example 258]	
70.5 ± 4.9%	CC(C)(Cc1ccc(Oc2ccc(C(N)=O)nc2)cc1)NC[C@H](O)COc1ccccc1-c1ccns1.O=C(O)C(F)(F)F [Example 207]	
41.1 ± 8.2%	CCOC(=O)c1ccc(Oc2ccc(CC(C)(C)NC[C@H](O)COc3ccccc3-c3ccno3)cc2)c(F)c1.O=C(O)C(F)(F)F [Example 186]	
56.0 ± 2.9%	CC(C)(Cc1ccc(Oc2ccc(C#N)nc2)cc1)NC[C@H](O)COc1ccccc1-c1cccs1.O=C(O)C(F)(F)F [Example 220]	
69.8 ± 6.0%	CC(C)(Cc1ccc(Oc2ncccn2)cc1)NC[C@H](O)COc1ccccc1-c1cccs1.O=C(O)C(F)(F)F [Example 150]	
40.3 ± 0.5%	CC(C)(Cc1ccc(Oc2ncccc2C(N)=O)cc1)NC[C@H](O)COc1ccccc1-n1ccc(C=O)c1 [Example 273]	

From patent US6730792B2, “β3 adrenergic agonists” (Eli Lilly and Company, priority 2000, dated 2004)
